In publication PMC7343212, “Lactoferrin-Hexon Interactions Mediate CAR-Independent Adenovirus Infection of Human Respiratory Cells” (Journal of Virology, 2020):
Bridges are numbered along the chain shown (N, C = ends). Where no end group is shown, it is not given here.

Columns and labels:
HAdV-C5 hexon = target: T1, HAdV-C5 hexon (Human adenovirus C serotype 5, UniProt P04133); experiment: Surface plasmon resonance, HAdV-C5 hexon immobilized; format: binding; details: SPR Biacore T200, HAdV-C5 hexon on CM5 chip, analyte hLfcin1-49, 2-fold series 8 nM to 2 μM, HBS-EP+ pH 7.4, 25°C; average from three independent measurements
T1 construct: the top phase containing soluble viral components was recovered, and HAdV hexons were purified using monoclonal hexon antibodies; made in house; host or cells: A549 cells infected with wild-type HAdV-C5 (strain Ad75)
T1 sequence (P04133 2-952 limits assumed): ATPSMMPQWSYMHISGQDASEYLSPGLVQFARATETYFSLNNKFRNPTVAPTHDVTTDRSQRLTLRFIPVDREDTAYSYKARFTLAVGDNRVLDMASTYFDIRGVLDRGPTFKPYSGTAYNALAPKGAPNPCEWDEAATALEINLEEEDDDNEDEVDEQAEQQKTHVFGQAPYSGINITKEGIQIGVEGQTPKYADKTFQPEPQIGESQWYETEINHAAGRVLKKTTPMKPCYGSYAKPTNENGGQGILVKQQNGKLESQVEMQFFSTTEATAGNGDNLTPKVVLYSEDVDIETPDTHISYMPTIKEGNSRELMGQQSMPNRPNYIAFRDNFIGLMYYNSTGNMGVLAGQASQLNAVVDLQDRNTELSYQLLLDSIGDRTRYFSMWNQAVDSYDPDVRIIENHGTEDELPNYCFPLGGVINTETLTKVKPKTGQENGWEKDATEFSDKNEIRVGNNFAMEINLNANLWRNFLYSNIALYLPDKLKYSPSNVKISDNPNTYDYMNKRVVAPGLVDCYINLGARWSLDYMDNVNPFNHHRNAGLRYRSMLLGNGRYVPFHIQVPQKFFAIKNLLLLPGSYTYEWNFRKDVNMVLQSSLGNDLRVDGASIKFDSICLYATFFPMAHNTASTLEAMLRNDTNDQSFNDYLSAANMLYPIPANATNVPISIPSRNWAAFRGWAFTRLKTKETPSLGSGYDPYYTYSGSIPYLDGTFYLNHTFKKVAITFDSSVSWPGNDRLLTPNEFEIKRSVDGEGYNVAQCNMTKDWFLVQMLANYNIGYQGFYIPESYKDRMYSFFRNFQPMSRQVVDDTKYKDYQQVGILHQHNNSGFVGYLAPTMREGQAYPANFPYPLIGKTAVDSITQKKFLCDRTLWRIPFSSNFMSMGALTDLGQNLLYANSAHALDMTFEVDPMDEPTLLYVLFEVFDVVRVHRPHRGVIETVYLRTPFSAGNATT
Procedure: Ten flasks of 70% confluent A549 cells were infected with HAdV-C5, HAdV-A31, or HAdV-B35. After initial inoculation, unbound virus was washed away, and approximately 30 ml of fresh medium (DMEM plus 20 mM HEPES [N-2-hydroxyethylpiperazine-NN-2-ethanesulfonic acid] plus 5% FBS) was added. At 48 h after infection, the cells were harvested by scraping into a small volume of DMEM, centrifuged, and resuspended in 6 ml of DMEM. The collected cells were lysed and the sample cleared by centrifugation. Virus was separated from soluble viral components by a CsCl gradient, as described previously ([59]). After ultracentrifugation, the top phase containing soluble viral components was recovered, and HAdV hexons were purified using monoclonal hexon antibodies (MAB8052) covalently attached to magnetic protein A/G beads (Pierce) using dimethyl pimelimidate (DMP) according to the manufacturer’s instructions. Bound hexons were washed three times using PBS to remove protein bound unspecifically, followed by elution in 50 μl of 200 mM glycine buffer at pH 2.5.
CM5 sensor chips, an amine-coupling kit, and HBS-EP+ buffer (10 mM HEPES, 150 mM NaCl, 3 mM EDTA, and 0.005% [vol/vol] surfactant P20 [pH 7.4]) were all purchased from GE Healthcare. All surface plasmon resonance (SPR) experiments were performed at 25°C in HBS-EP+ running buffer with adenovirus hexons immobilized on the sensor surface. […]

[1] = test system: human respiratory epithelial A549 cells (HAdV-C5_GFP); experiment: HAdV-C5_GFP transduction of A549 cells; format: cell-based; details: at this concentration (2 μM), Fig. 1D
Text: For all transduction experiments, GFP-expressing vectors were used. The HAdV_GFP vector was purchased from Vector Development Laboratory. All mutated HAdV-C5 vectors were generated in the laboratory of A. Plückthun at the University of Zürich using the AdEasy system (Agilent) to contain an internal ribosome entry site (IRES)-luciferase (Luc)-GFP cassette for detection of transduction. To investigate the role of integrins in transduction, HAdV-C5-IRES-GFP with an intact RGD loop in the penton base protein (-DMNDHAIRGDTFATRAE-) and HAdV-C5-ΔRGD-IRES-GFP (-DMNDTSRAEEKRAE-), known not to bind integrins ([40]), were generated. To determine the binding site for hLF/hLfcin on the hexon protein, hexon-mutated vectors were produced with HVR-1 of HAdV-C5 ([43]) replaced with the corresponding sequence of HAdV-A31, as well as a HAdV-C5 vector mutated in HVR-7 ([44]).
For experiments in A549 cells, 15,000 cells were seeded into a black 96-well plate with a transparent bottom. For experiments with CHO-K1 cells, 20,000 cells were seeded. After 24 h, HAdV-C5 vectors was complexed with 2 μM Lfcin or with ∼12 μM (1 mg/ml) of LF and, after 60 min, added to the cells on ice. The blocking of CAR using soluble HAdV-C5 fiber knob was performed using 10 μg/ml of recombinant knob. After another 60 min, unbound complex was washed away using Dulbecco’s modified Eagle’s medium (DMEM), followed by final addition of fresh medium. After 44 h, the cells were fixed using 4% paraformaldehyde (PFA) for 10 min, and GFP expression was imaged using a Trophos system (Luminy Biotech Entreprises). For the hexon chimeric viruses, transduction was instead quantified by measuring the luciferase activity at 44 h postinfection using a Pierce luciferase glow assay kit.

[2] = test system: A549 cells (HAdV-C5 virions); experiment: 35S-labeled HAdV-C5 virion binding to A549 cells; format: cell-based, Human; details: at this concentration (2 μM), Fig. 1C
Procedure: A549 cells were detached using phosphate-buffered saline (PBS) plus 0.05% EDTA with slow rocking at 37°C. Once detached, the cells were centrifuged at 1,500 × g for 5 min, resuspended in growth medium to about 2 × 10^6 cells/ml, and allowed to recover at 37°C, slowly rocking to keep the cells in suspension. While recovering, the HAdV-Lfcin complex was set up. Lfcin (2 μM), or an equivalent volume of PBS, was mixed with ^35S-labeled HAdV (15,000 particles/cell) in medium and left on ice at 4°C for 60 min. After 60 min of recovery, the cells were counted, and 150,000 viable cells were added to each well of a 96-V-shaped-well plate and centrifuged for 5 min at 1,500 × g. Once pelleted, the cells were resuspended in the HAdV-Lfcin solution or in HAdV-PBS solution and incubated on ice for 60 min at 4°C. After 60 min, the cells were pelleted and washed once in medium and once in PBS before the addition of scintillation fluid and quantification using a Wallac 1450 Microbeta counter (Trilux).

## GRRRRSVQWCAVSQPEATKCFQWQRNMRKVRGPPVSCIKRDSPIQCIQA (disulfide 10-46, 20-37) [hLfcin1-49, human lactoferricin]
HAdV-C5 hexon
  Kd: 0.73 ± 0.206 µM

## bLfcin17-31: bovine lactoferricin 17-31, standard solid-phase peptide synthesis (FKCRRWQWRMKKLGA; UniProt P24627 36-50, looked up, fragment) [reference compound]
[1]
  effect on HAdV-C5 transduction of A549 cells (in words): no or little effect
[2]
  effect on HAdV-C5 binding to A549 cells (in words): no or little effect

## bLfcin17-42: bovine lactoferricin 17-42, purchased from the Center for Food Technology (FKCRRWQWRMKKLGAPSITCVRRAFA; ends and bridges not checked; cysteine pairing not given here; UniProt P24627 36-61, looked up, fragment) [reference compound]
[1]
  effect on HAdV-C5 transduction of A549 cells (in words): no or little effect
[2]
  effect on HAdV-C5 binding to A549 cells (in words): no or little effect

## hLfcin18-42: human lactoferricin 18-42, solid-phase synthesis, cyclized in a two-step approach (KCFQWQRNMRKVRGPPVSCIKRDSP; not fully specified (bridges); also: cyclized in a two-step approach, kind and places not given here; UniProt P02788 37-61, looked up, fragment)
[1]
  effect on HAdV-C5 transduction of A549 cells (in words): no or little effect
[2]
  effect on HAdV-C5 binding to A549 cells (in words): no or little effect
